Read-outs that look alike come from different tables or passages of the source. Values belong to the molecule of their own block, whether it stands above or below them.
Columns and labels:
renal dipeptidase = target: T1, renal dipeptidase (Sus scrofa, UniProt P22412); test: Substrate affinity and maximal velocity of hydrolysis by renal dipeptidase; format: biochemical, hog; conditions: GDP compared with thienamycin
T1 construct: GPI-anchored disulfide-linked homodimer
T1 sequence (P22412 17-384): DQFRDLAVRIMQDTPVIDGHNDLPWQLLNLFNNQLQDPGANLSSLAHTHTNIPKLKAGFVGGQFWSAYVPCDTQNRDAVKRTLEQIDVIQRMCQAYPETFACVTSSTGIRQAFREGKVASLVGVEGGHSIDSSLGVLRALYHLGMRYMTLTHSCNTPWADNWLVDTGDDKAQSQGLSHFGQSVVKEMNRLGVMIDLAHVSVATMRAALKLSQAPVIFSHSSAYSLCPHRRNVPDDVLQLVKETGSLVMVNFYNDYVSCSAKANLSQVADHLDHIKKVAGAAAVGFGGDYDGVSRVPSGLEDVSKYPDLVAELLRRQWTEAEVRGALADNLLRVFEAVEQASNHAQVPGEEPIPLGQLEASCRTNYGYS

[1] = target: T2, renal dipeptidase (E.C.3.4.13.11) (Sus scrofa, UniProt P22412); test: Inhibition of glycyldehydrophenylalanine (GDP) hydrolysis by renal dipeptidase in vitro; format: biochemical, pig (hog); conditions: read-out: Ki
T2 construct: solubilized preparation of dipeptidase isolated from hog kidneys; from tissue; host or cells: hog kidney
T2 sequence (P22412 17-409): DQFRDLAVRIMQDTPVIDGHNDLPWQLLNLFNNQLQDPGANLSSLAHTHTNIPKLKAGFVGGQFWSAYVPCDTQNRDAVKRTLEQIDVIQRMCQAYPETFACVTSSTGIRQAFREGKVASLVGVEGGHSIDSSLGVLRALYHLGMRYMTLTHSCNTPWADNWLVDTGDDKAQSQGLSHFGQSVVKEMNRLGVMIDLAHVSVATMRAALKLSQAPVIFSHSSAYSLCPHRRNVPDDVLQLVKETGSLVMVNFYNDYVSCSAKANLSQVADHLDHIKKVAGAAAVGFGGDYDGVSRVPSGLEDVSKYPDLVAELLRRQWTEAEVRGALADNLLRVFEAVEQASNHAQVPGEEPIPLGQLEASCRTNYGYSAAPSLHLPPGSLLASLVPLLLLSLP
Method: This measured the ability of compounds to inhibit hydrolysis of glycyldehydrophenylalanine (GDP) by a solubilized preparation of dipeptidase isolated from hog kidneys The procedure is as follows to a 1 ml. system containing 50 mM "MOPS" (3-(N-morpholino)propanesulfonic acid) buffer, pH 7.1, is added 5 μg of lyophilized enzyme, and the test compound at a final concentration of 0.1 mM. After a five minute incubation at 37° C., GDP is added to a final concentration of 0.05 mM. Incubation is continued for 10 minutes, at 37° C. and hydrolysis of GDP is measured by the change in optical density with time at 275 nm. Inhibition of the enzyme is gauged by comparison to a standard run containing no inhibitor and is expressed as the inhibitor binding constant, Ki.
A 1 ml. system of 50 mM "MOPS" buffer, pH 7.1, is used. To this is added 5 μg of the pig renal enzyme and an amount of the test compound to bring its final concentration to 0.1 mM. After a five minute incubation at 37° C., an amount of GDP is added to bring its final concentration to 0.05 mM. The system is again incubated for 10 minutes, at 37° C. Hydrolysis of GDP is measured by its change in optical density with time at 275 nm. Inhibition of the enzyme is gauged by comparison to a standard run containing no inhibitor and is presented as percent inhibition.

Staphalococcus aureus = test: Systemic efficacy of thienamycin on the treatment of Staphylococcus aureus infections in the mouse; format: in vivo, Staphalococcus aureus (in mouse); conditions: coadministered with thienamycin
[2] = Plasma level of thienamycin class compound in the mouse; format: in vivo; conditions: po, 10 mg/kg; for concentration at 0.5 h: 30 minutes; for concentration at 1 h: 60 minutes; for concentration at […]: 90 minutes
Method: (§1) An in vivo assay is conducted using 34 Charles River CD female mice. Seventeen of the mice are administered 40 mg/kg of the inhibitor 7-(L-2-amino-2-carboxyethylthio)-2-(2,2-dimethylcyclopropanecarboxamido)-2-heptenoic acid subcutaneously, and an additional 40 mg/kg per os. Immediately thereafter they and an additional 17 mice are administered 10 mg/kg of the thienamycin class compoud (±)-[5R,6S]-2-ethylthio-6[(R)-1-hydroxyethyl]-pen-2-em-3-sodiocarboxylate by oral gavage. The level of the latter compound in plasma is tested at 10, 30, 60 and 90 minutes using 3 mice from each group at each time period.

[3] = Urinary recovery of thienamycin class compound in the mouse; format: in vivo; conditions: urine, po, 10 mg/kg; for dose excreted: Total
Method: as §1
The remaining 5 mice from each group are tested for urinary recovery of the thienamycin class compound with the following results.

[4] = Urinary recovery of thienamycin in the mouse with co-administered inhibitor; format: in vivo; conditions: urine
Method: In addition to this in vitro screen procedure, an in vivo sreen was followed to measure the test compound's ability to inhibit metabolism as reflected by increase in urinary recovery of thienamycin from the mouse. The procedure involves co-administration of the test compound by the intravenous or subcutaneous route at a dose-rate of 10-100 mg/kg, with 10 mg/kg thienamycin. Thienamycin recovery in the urine over a 4 hour period is then compared with its recovery in a control group to which test compound was not coadministered.
Urinary recovery of thienamycin was measured in all cases with the use of a cylinder or disc diffusion assay, conducted in a manner described in U.S. Pat. No. 3,950,357. This bioassay, with Staphylococcus aureus ATCC 6538 as the test organism, has a useful response range from 0.04 μg/ml to 3.0 μg/ml.
An in vivo assay on the mouse was conducted as follows: 20 g Charles River CD, female mice were injected subcutaneously with the chosen dose of the chemical inhibitor. About two minutes later, the dose of thienamycin was given intravenously. A control of thienamycin above was also conducted. The level of thienamycin in the urine as a % of dose was measured using a bioassay technique. The two test compound numbers are those from Table I. Compound 7 is Z-2-isovaleramido-2-butenoicacid; compound 10 is Z-2-cyclopropylcarboxamido-2-butenoic acid. […]

[5] = concentration producing 50% inhibition, substrate GDP 0.05 mM, pH 7.1, 37° C.
[6] = 10 mg/kg oral plus inhibitor (40 mg/kg SC + 40 mg/kg per os)

- concentration at 10 min [2, 6]: 2600 µg/mL
- concentration at 10 min ([2]; compound alone, 10 mg/kg oral): 3100 µg/mL
- concentration at 0.5 h [2, 6]: 4800 µg/mL
- concentration at 0.5 h ([2]; compound alone, 10 mg/kg oral): 3700 µg/mL
- concentration at 1 h [2, 6]: 6100 µg/mL
- concentration at 1 h ([2]; compound alone, 10 mg/kg oral): 4400 µg/mL
- concentration at […] [2, 6]: 3800 µg/mL
- concentration at […] ([2]; compound alone, 10 mg/kg oral): 1800 µg/mL
- dose excreted at 1 h [3, 6]: 1.5%
- dose excreted at 1 h ([3]; compound alone, 10 mg/kg oral): 1.8%
- dose excreted at 3 h [3, 6]: 2.3%
- dose excreted at 3 h ([3]; compound alone, 10 mg/kg oral): 0.6%
- dose excreted [3, 6]: 3.8%
- dose excreted ([3]; compound alone, 10 mg/kg oral): 2.4%
Compound: CCSC1=C(C(=O)O)N2C(=O)[C@H]([C@@H](C)O)[C@H]2S1 (relative stereo) [Thienamycin Class Compound, (±)-[5R,6S]-2-ethylthio-6[(R)-1-hydroxyethyl]-pen-2-em-3-sodiocarboxylate]

- Ki ([1]; Example 18B, unit inferred): 0.16 µM
Compound: CC(NCCCCC/C=C(\NC(=O)C1CC1(C)C)C(=O)O)P(=O)(O)O (stereo not shown) [Example 18B]

- dose excreted at 4 h ([4]; Table III, THM alone 10 mg/kg IV or SC, read-out: Urinary Recovery of THM, %): 30 ± 5%
- dose excreted at 4 h ([4]; Table IV, THM alone 10 mg/kg SC, read-out: Urinary Recovery THM, %): 30 ± 5%
Compound: C[C@@H](O)[C@H]1C(=O)N2C(C(=O)O)=C(SCCN)C[C@H]12 [Thienamycin]

- Ki [1, 5]: 3 µM
Compound: C/C=C(\NC(=O)C1CC1(C)C(C)C)C(=O)O (stereo not shown) [Compound 44]

- Ki [1, 5]: 0.32 µM
Compound: COCC/C=C(\NC(=O)C1CC1(C)C)C(=O)O (stereo not shown) [Compound 61]

Second part, the molecule before the results:

Compound: NCC(=O)NC(=Cc1ccccc1)C(=O)O [GDP, glycyldehydrophenylalanine]
- maximal velocity of hydrolysis by renal dipeptidase (renal dipeptidase): much higher maximal velocity of hydrolysis

Compound: C/C=C(\NC(=O)CC(C)C)C(=O)O [Compound 7, Z-2-isovaleramido-2-butenoic acid]
- Ki [1, 5]: 6 µM
- enhancement of systemic antibacterial activity of thienamycin (Staphalococcus aureus): approximately three-fold

Compound: C/C=C(\NC(=O)CC1CC1)C(=O)O [Compound 22]
- Ki [1, 5]: 22 µM

Compound: C/C=C(\NC(=O)C1CC1CC)C(=O)O (stereo not shown) [Compound 43]
- Ki [1, 5]: 1.6 µM

Compound: C/C=C(\NC(=O)CCCC)C(=O)O [Compound 23, Z-2-valeramido-2-butenoic acid]
- Ki [1, 5]: 32 µM

— patent US4616038A, “Combination of thienamycin-type antibiotics with dipeptidase inhibitors” (Merck & Co., Inc., priority 1985, dated 1986)
